Measured values taken from PMC10080691, “Enzyme-Responsive Double-Locked Photodynamic Molecular Beacon for Targeted Photodynamic Anticancer Therapy” (Journal of the American Chemical Society, 2023).

Key:
[1] = test system: A549 tumor-bearing nude mice; assay: In vivo fluorescence activation in tumor; set-up: species or system Balb/c nude mice; conditions: 6 h post-injection; intratumoral, 20 nmol in 20 μL water with 7.5% DMSO and 0.5% Tween 80; excitation 680 nm, emission ≥700 nm; n = 4
Procedure: The in vivo activation of 1 in terms of fluorescence emission was further investigated using A549 tumor-bearing nude mice as the animal model and the non-cleavable analogue 14 as the negative control. […] The fluorescence intensity per unit area of the tumor was also determined at different time points for both conjugates (Figure 7b). […] At 6 h post-injection, the intensity of 1 was 4.3-fold higher than that of 14, showing that the former could be activated through enzymatic cleavage of the two peptide segments by the intrinsic MMP-2 and cathepsin B in the tumor, while the latter remained largely quenched due to its non-cleavable nature. […]
taken by a microplate reader (Tecan Spark 10M) at ambient temperature. The average […]
of the other wells. The cell viability was then determined by the equation: […]
where Ai is the absorbance of the ith datum (i = 1, 2, …, n), Acontrol is the average absorbance of the control wells in which the compound was absent, and n (= 4) is the number of data points.
Female Balb/c nude mice (20–25 g) were obtained from the Laboratory Animal Services Centre at The Chinese University of Hong Kong. […] In vivo fluorescence imaging was performed before and after […]
A549 tumor-bearing nude mice were prepared as described above. The length and width of the tumor were measured using a micrometer digital caliper (SCITOP Systems). […]

[2] = molecular target: cathepsin B (Homo sapiens, UniProt P07858); assay: Cathepsin B-responsive fluorescence activation; type: biochemical; conditions: 1 μM, cathepsin B only (1 unit mL-1), pH 5.0 buffer, 0.1% Tween 80, 37 °C
Procedure: To examine the response of PMB 1 toward MMP-2 and cathepsin B, its absorption and fluorescence spectra were monitored in the presence of these stimuli at 37 °C over a period of 25 h, using the non-cleavable analogue 14 as the negative control. For studying the MMP-2-responsive effect, MMP-2 (2 μg mL^–1) in PBS at pH 7.4 was used to mimic the high serum levels of this enzyme in patients with cancer.[68] The effect of cathepsin B (using a concentration of 1 unit mL^–1) was studied in the working buffer mentioned above at pH 5.0 to mimic the lysosomal environment.[69] […] Similar results were obtained for the study using cathepsin B in the buffer (Figure S8e–h). […] The more flexible ring-opening structure, however, might slightly increase the separation of the two moieties, leading to a lower FRET efficiency,[70] which could explain the small increase in fluorescence intensity. […] As expected, both the absorption and fluorescence spectra were not changed toward these two enzymes (Figure S9).
The fluorescence recovery was then determined for 1 under the aforementioned conditions, assuming that the fluorescence intensity of 8 at the same concentration in the same medium was the maximum fluorescence intensity that could be recovered. […]
All of the solutions were stirred continuously at 37 °C. The ir electronic absorption and fluorescence spectra were monitored over a period of 25 h. […]

## CCN(CC)c1ccc2nc3ccc(/N=N/c4ccc(N(C)CCCNC(=O)OC[C@@H]5[C@@H]6CCc7nnn(CC(=O)NCCCC[C@@H]8NC(=O)CNC(=O)[C@H](CCCCN)NC(=O)[C@H](CCCNC(=N)N)NC(=O)[C@H](C(C)C)NC(=O)CNC(=O)[C@H](CC(C)C)NC(=O)[C@@H]9CCCN9C(=O)[C@H](CCCCN)NC(=O)[C@@H](N)CSCc9cc(COc%10ccc(C%11=C%12C(C)=C(I)C(/C=C/c%13ccc(OCCOCCOCCOC)cc%13)=[N+]%12[B-](F)(F)n%12c(/C=C/c%13ccc(OCCOCCOCCOC)cc%13)c(I)c(C)c%12%11)cc%10)cc(c9)CSC[C@@H](C(N)=O)NC(=O)[C@H](CCCCN)NC(=O)[C@H](CCCCN)NC(=O)CNC(=O)[C@H](CC(C)C)NC(=O)[C@H](Cc9ccccc9)NC(=O)CNC(=O)[C@H](CCCCN)NC(=O)CNC8=O)c7CC[C@@H]65)cc4)cc3[n+](-c3ccccc3)c2c1 [compound 1]
[1]
  tumoral fluorescence intensity relative to that of 14: 4.3 fold
[2]
  on/off ratio (fluorescence intensity at 25 h / initial intensity): ca. 2.7
